The source of these data is patent US10618901B2 (GlaxoSmithKline Intellectual Property Development Limited, priority 2014, dated 2020).

Where only a bound is given, the exact number is not on record here.

T1 sequence (Q5S007 whole entry): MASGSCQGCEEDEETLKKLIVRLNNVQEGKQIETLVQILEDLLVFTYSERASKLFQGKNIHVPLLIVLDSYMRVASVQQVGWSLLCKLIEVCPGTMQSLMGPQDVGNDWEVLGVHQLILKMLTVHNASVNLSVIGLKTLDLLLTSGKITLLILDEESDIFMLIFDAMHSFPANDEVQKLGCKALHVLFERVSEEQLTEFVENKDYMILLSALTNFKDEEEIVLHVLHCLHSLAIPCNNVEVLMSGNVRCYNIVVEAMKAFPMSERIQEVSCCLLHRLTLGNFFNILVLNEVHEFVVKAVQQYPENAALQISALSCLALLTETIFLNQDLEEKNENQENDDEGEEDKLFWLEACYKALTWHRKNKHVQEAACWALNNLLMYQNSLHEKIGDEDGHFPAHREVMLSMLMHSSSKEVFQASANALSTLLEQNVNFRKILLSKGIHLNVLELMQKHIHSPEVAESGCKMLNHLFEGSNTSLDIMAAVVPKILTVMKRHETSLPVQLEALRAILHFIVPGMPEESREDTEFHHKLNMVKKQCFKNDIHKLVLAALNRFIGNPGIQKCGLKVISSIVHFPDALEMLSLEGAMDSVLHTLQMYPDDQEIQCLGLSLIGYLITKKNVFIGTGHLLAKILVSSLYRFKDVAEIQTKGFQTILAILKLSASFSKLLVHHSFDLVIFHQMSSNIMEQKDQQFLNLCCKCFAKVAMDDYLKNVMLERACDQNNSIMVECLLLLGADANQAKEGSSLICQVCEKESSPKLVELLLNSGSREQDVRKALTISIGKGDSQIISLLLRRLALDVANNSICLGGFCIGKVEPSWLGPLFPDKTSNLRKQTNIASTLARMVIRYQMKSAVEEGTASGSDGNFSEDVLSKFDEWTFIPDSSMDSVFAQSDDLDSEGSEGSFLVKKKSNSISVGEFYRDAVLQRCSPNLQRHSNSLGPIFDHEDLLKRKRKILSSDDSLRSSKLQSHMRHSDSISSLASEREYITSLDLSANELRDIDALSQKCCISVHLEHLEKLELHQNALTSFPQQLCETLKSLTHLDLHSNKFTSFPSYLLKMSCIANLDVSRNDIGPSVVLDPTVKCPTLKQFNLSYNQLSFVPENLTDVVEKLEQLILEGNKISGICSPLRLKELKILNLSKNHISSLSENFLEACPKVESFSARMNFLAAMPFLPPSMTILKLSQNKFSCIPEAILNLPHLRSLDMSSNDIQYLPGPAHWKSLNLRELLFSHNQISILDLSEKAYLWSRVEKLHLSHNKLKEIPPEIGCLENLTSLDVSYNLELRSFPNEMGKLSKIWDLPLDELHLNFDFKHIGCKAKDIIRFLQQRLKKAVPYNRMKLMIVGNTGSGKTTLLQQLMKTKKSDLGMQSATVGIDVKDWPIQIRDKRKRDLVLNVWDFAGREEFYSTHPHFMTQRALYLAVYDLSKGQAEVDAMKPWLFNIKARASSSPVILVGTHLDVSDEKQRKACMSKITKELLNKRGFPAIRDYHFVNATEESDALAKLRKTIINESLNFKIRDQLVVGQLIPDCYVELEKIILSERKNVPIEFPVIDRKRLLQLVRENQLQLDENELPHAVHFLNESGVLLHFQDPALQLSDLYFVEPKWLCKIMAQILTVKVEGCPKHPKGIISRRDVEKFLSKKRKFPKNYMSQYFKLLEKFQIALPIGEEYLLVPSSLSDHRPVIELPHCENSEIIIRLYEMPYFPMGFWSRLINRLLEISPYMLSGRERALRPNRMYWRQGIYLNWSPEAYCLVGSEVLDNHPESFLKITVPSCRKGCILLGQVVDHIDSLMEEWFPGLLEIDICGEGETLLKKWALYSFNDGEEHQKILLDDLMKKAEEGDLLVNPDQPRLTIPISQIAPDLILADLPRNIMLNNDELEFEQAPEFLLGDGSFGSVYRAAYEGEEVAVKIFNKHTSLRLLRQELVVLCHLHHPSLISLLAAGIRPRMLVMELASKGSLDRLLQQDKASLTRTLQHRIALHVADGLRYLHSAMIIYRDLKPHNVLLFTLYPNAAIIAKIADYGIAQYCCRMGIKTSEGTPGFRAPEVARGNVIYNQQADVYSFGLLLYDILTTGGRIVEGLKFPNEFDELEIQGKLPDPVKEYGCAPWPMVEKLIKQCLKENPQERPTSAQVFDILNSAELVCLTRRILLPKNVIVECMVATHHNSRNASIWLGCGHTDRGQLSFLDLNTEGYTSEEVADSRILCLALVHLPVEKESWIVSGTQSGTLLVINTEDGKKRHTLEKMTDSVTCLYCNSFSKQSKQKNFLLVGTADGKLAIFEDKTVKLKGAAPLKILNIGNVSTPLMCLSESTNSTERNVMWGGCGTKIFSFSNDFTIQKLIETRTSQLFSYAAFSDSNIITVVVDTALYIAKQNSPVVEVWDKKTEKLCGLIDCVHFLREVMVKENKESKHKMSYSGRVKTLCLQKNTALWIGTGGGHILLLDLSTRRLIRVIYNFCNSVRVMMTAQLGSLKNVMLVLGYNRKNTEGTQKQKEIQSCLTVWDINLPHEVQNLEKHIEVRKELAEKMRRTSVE

One experiment has as its target T1, LRRK2 Ser935 phosphorylation in SH-SY5Y cells over-expressing recombinant full length LRRK2 (Homo sapiens, UniProt Q5S007).
T1 construct: A BacMam virus expressing full length recombinant LRRK2 was purchased from Invitrogen; host or cells: SH-SY5Y (BacMam transduction)
The experiment is described as follows: Recombinant cellular LRRK2 AlphaScreen assay. In kind it is cell-based. Conditions: LRRK2 Ser935 phosphorylation, 60 minutes, read-out: recombinant cellcular LRRK2 alphaScreen assay (pIC50) (converted). From the text:
Recombinant Cellular LRRK2 AlphaScreen Assay
To determine the activity of compounds against LRRK2 kinase activity in cells, the observed LRRK2 kinase-dependent modulation of LRRK2 Ser 935 phosphorylation (Dzamko et al., 2010, Biochem. J. 430: 405-413) was utilized to develop a quantitative 384 well plate-based immunoassay of LRRK2 Ser935 phosphorylation in the human neuroblastoma cell line SH-SY5Y, engineered to over-express recombinant full length LRRK2 protein.
A BacMam virus expressing full length recombinant LRRK2 was purchased from Invitrogen and amplified by inoculation of SF-9 cells at MOI 0.3 for 4-5 days in Sf-900 III SFM medium supplemented with 3% fetal bovine serum. Infected cell cultures were then centrifuged at 2000 g for 20 minutes, viral supernatant titer determined by anti-gp64 plaque assay and stored at 4° C.
Affinity-purified anti-phospho LRRK2 Ser935 sheep polyclonal antibody (Dzamko et al., 2010, Biochem. J. 430: 405-413) was biotinylated by standard methods (PerkinElmer). Anti-LRRK2 rabbit polyclonal antibody was purchased from Novus Biologicals. AlphaScreen Protein A IgG Kit (including acceptor and donor beads) was purchased from Perkin Elmer.
SH-SY5Y cells were grown in DMEM/F12 medium with 10% dialysed fetal bovine serum and harvested by treatment with 0.5% trypsin-EDTA for 5 minutes at 37° C. followed by centrifugation at 1000 rpm for 4 minutes. The cell pellet was resuspended in Opti-MEM reduced serum media (Invitrogen) at 200,000 cells/ml and mixed with the BacMam LRRK2 virus at M01=50. 50 μl cell solutions were then dispensed to each well of a 384-well plate and incubated at 37° C., 5% CO2 for 24 hours.
Serial dilutions of test compounds were prepared in Opti-MEM reduced serum media (Invitrogen) and 5.6 ul transferred from compound plate to cell assay plate to achieve a top final assay concentration of 10 uM. DMSO was used in certain wells as controls. Cells were incubated at 37° C., 5% CO2 for 60 minutes. The medium was then removed and cells lysed by addition of 20 ul cell lysis buffer (Cell Signaling Technology) and incubation at 4° C. for 20 minutes. 10 ul of antibody/acceptor bead mix [(1/1000 biotinylated-pS935 LRRK2 antibody, 1/1000 total-LRRK2 antibody, 1/100 Acceptor beads in AlphaScreen detection buffer (25 mM Hepes (pH 7.4), 0.5% Triton X-100, 1 mg/ml Dextran 500 and 0.1% BSA)] was then added to each well and plates incubated for 2 hours at ambient temperature in the dark. 10 μl of donor beads solution (1/33.3 donor beads in AlphaScreen detection buffer) was then added to each well. Following incubation for a further 2 hours at ambient temperature in the dark, plates were read on an EnVision™ plate reader at emission 520-620 nm with excitation 680 nm. Dose response curve data was based on sigmoidal dose-response model.
With `CCOc1nc(Nc2cnn([C@H]3C[C@H](F)CN(C4COC4)C3)c2Cl)nc2[nH]ccc12` [Example E150, N-(5-chloro-1-((3S,5S)-5-fluoro-1-(oxetan-3-yl)piperidin-3-yl)-1H-pyrazol-4-yl)-4-ethoxy-7H-pyrrolo[2,3-d]pyrimidin-2-amine], the IC50 is 31.6 nM.

Still in this experiment, the particulars now being: read-out: pIC50 in the recombinant cellular LRRK2 alphaScreen assay (converted).
As for `CCOc1nc(Nc2cnn(CCN3CC[C@H](F)C3)c2C)nc2[nH]ccc12` [Example E64, (S)-4-ethoxy-N-(1-(2-(3-fluoropyrrolidin-1-yl)ethyl)-5-methyl-1H-pyrazol-4-yl)-7H-pyrrolo[2,3-d]pyrimidin-2-amine], the IC50 was at most 100 nM. The same measure, in the same setting: to `CCOc1nc(Nc2cnn(C(C)(C)CO)c2C)nc2[nH]ccc12` [Example E65, 2-(4-((4-ethoxy-7H-pyrrolo-[2,3-d]pyrimidin-2-yl)amino)-5-methyl-1H-pyrazol-1-yl)-2-methylpropan-1-ol] belongs at most 100 nM; to `CCOc1nc(Nc2cnn(C3CCN(C4COC4)C3)c2C)nc2[nH]ccc12` (stereo not drawn) [Example E66, 4-Ethoxy-N-(5-methyl-1-(1-(oxetan-3-yl)pyrrolidin-3-yl)-1H-pyrazol-4-yl)-7H-pyrrolo[2,3-d]pyrimidin-2-amine], at most 100 nM. As to `CCOc1nc(Nc2cnn(CCN3CCOC[C@H]3C)c2C)nc2[nH]ccc12` [Example E81, (R)-4-ethoxy-N-(5-methyl-1-(2-(3-methylmorpholino)ethyl)-1H-pyrazol-4-yl)-7H-pyrrolo [2,3-d]pyrimidin-2-amine], the IC50 is at most 100 nM. On the same count and under the same terms, then `CCOc1nc(Nc2cnn(CCN3CCOC[C@@H]3C)c2C)nc2[nH]ccc12` [Example E82, (S)-4-ethoxy-N-(5-methyl-1-(2-(3-methylmorpholino)ethyl)-1H-pyrazol-4-yl)-7H-pyrrolo [2,3-d]pyrimidin-2-amine], with at most 100 nM; and `CCOc1nc(Nc2cnn(CCN3CCO[C@H](C)C3)c2C)nc2[nH]ccc12` [Example E83, (R)-4-ethoxy-N-(5-methyl-1-(2-(2-methylmorpholino)ethyl)-1H-pyrazol-4-yl)-7H-pyrrolo [2,3-d]pyrimidin-2-amine], with at most 100 nM. Still for that read-out and setting: then `CCOc1nc(Nc2cnn(CCN3CCO[C@@H](C)C3)c2C)nc2[nH]ccc12` [Example E84, (S)-4-ethoxy-N-(5-methyl-1-(2-(2-methylmorpholino)ethyl)-1H-pyrazol-4-yl)-7H-pyrrolo [2,3-d]pyrimidin-2-amine], with at most 100 nM; and `CCOc1nc(Nc2cnn([C@@H]3CCN(CC(F)F)C3)c2C)nc2[nH]ccc12` [Example E85, (R)—N-(1-(1-(2,2-difluoroethyl)pyrrolidin-3-yl)-5-methyl-1H-pyrazol-4-yl)-4-ethoxy-7H-pyrrolo[2,3-d]pyrimidin-2-amine], with at most 100 nM. For the molecule `CCOc1nc(Nc2cnn([C@H]3CCN(CC(F)F)C3)c2C)nc2[nH]ccc12` [Example E87, (S)—N-(1-(1-(2,2-difluoroethyl)pyrrolidin-3-yl)-5-methyl-1H-pyrazol-4-yl)-4-ethoxy-7H-pyrrolo[2,3-d]pyrimidin-2-amine], the IC50 was at most 100 nM. The same measure, in the same setting: then `CCOc1nc(Nc2cnn(CC(C)(C)N3CCOCC3)c2C)nc2[nH]ccc12` [Example E88, 4-ethoxy-N-(5-methyl-1-(2-methyl-2-morpholinopropyl)-1H-pyrazol-4-yl)-7H-pyrrolo[2,3-d]pyrimidin-2-amine], with at most 100 nM; and `CCOc1nc(Nc2cnn(C3CC(C)(O)C3)c2C)nc2[nH]ccc12` (stereo not drawn) [Example E93, 3-(4-((4-ethoxy-7H-pyrrolo[2,3-d]pyrimidin-2-yl)amino)-5-methyl-1H-pyrazol-1-yl)-1-methylcyclobutanol], with at most 100 nM. For `CCOc1nc(Nc2cnn([C@@H]3CCN[C@@H](C(F)F)C3)c2C)nc2[nH]ccc12` [Example E94, N-(1-((2R,4R)-2-(difluoromethyl)piperidin-4-yl)-5-methyl-1H-pyrazol-4-yl)-4-ethoxy-7H-pyrrolo[2,3-d]pyrimidin-2-amine], the IC50 is at most 100 nM. On to `CCOc1nc(Nc2cnn([C@H]3CCN[C@@H](C(F)F)C3)c2C)nc2[nH]ccc12` [Example E95, N-(1-((2R,4S)-2-(difluoromethyl)piperidin-4-yl)-5-methyl-1H-pyrazol-4-yl)-4-ethoxy-7H-pyrrolo[2,3-d]pyrimidin-2-amine], for which the IC50 was at most 100 nM. Regarding `CCOc1nc(Nc2cnn(C(C)(C)C#N)c2C)nc2[nH]ccc12` [Example E96, 2-(4-((4-ethoxy-7H-pyrrolo[2,3-d]pyrimidin-2-yl)amino)-5-methyl-1H-pyrazol-1-yl)-2-methylpropanenitrile], the IC50 is at most 100 nM.

In the case of `CCOc1nc(Nc2cnn([C@H]3CCN(C4COC4)C[C@@H]3F)c2C)nc2[nH]ccc12` [Example E97, 4-ethoxy-N-(1-((3S,4S)-3-fluoro-1-(oxetan-3-yl)piperidin-4-yl)-5-methyl-1H-pyrazol-4-yl)-7H-pyrrolo[2,3-d]pyrimidin-2-amine], the IC50 is at most 100 nM. On the same count and under the same terms, then `CCOc1nc(Nc2cnn([C@@H]3CCN(C4COC4)C[C@H]3F)c2C)nc2[nH]ccc12` [Example E98, 4-ethoxy-N-(1-((3R,4R)-3-fluoro-1-(oxetan-3-yl)piperidin-4-yl)-5-methyl-1H-pyrazol-4-yl)-7H-pyrrolo[2,3-d]pyrimidin-2-amine], with at most 100 nM.

Turning to `CCOc1nc(Nc2cnn(CCN3CCO[C@@H](C(F)F)C3)c2C)nc2[nH]ccc12` [Example E99, (R)—N-(1-(2-(2-(difluoromethyl)morpholino)ethyl)-5-methyl-1H-pyrazol-4-yl)-4-ethoxy-7H-pyrrolo[2,3-d]pyrimidin-2-amine], the IC50 is at most 100 nM. Still for that read-out and setting: to `CCOc1nc(Nc2cnn([C@@H]3CCCN(C4COC4)C3)c2C)nc2[nH]ccc12` [Example E135, (R)-4-ethoxy-N-(5-methyl-1-(1-(oxetan-3-yl)piperidin-3-yl)-1H-pyrazol-4-yl)-7H-pyrrolo [2,3-d]pyrimidin-2-amine] belongs at most 100 nM. On the same count and under the same terms, then `CCOc1nc(Nc2cnn([C@H]3CCCN(C4COC4)C3)c2C)nc2[nH]ccc12` [Example E136, (S)-4-ethoxy-N-(5-methyl-1-(1-(oxetan-3-yl)piperidin-3-yl)-1H-pyrazol-4-yl)-7H-pyrrolo[2,3-d]pyrimidin-2-amine], with at most 100 nM. The same measure, in the same setting: then `CCOc1nc(Nc2cnn(C3(C)CC(N4CCOCC4)C3)c2C)nc2[nH]ccc12` (stereo not drawn) [Example E137, 4-ethoxy-N-(5-methyl-1-(1-methyl-3-morpholinocyclobutyl)-1H-pyrazol-4-yl)-7H-pyrrolo[2,3-d]pyrimidin-2-amine], with at most 100 nM.

`CCOc1nc(Nc2cnn(C3CCC(N4CCOCC4)CC3)c2Cl)nc2[nH]ccc12` (stereo not drawn) [Example E149, N-(5-chloro-1-(4-morpholinocyclohexyl)-1H-pyrazol-4-yl)-4-ethoxy-7H-pyrrolo[2,3-d] pyrimidin-2-amine]: the IC50 was at most 100 nM. Same read-out and setting: then `CCOc1nc(Nc2cnn([C@H]3C[C@H](F)CN(C4COC4)C3)c2Cl)nc2[nH]ccc12` [Example E150, N-(5-chloro-1-((3S,5S)-5-fluoro-1-(oxetan-3-yl)piperidin-3-yl)-1H-pyrazol-4-yl)-4-ethoxy-7H-pyrrolo[2,3-d]pyrimidin-2-amine], with at most 100 nM; and `CCOc1nc(Nc2cnn([C@@H]3C[C@H](F)CN(C4COC4)C3)c2Cl)nc2[nH]ccc12` [Example E151, N-(5-chloro-1-((3R,5S)-5-fluoro-1-(oxetan-3-yl)piperidin-3-yl)-1H-pyrazol-4-yl)-4-ethoxy-7H-pyrrolo[2,3-d]pyrimidin-2-amine], with at most 100 nM.
